Measurements taken from patent publication US10485236B2, “Triazole derivatives, intermediates thereof and their use as fungicides” (Bayer CropScience Aktiengesellschaft, priority 2015, dated 2019).
Marks after values point to notes of the source that are not given here.

Experiment: Measurement of LogP values by HPLC on reversed phase columns (EEC directive 79/831 Annex V.A8)
Format: physicochemical
Conditions: not given
Description: [table] If more than one Log P value is available within the same method, all the values are given and separated by “+”. Calibration was done with straight-chain alkan2-ones (with 3 to 16 carbon atoms) with known Log P values (measurement of Log P values using retention times with linear interpolation between successive alkanones). Lambda-max-values were determined using UV-spectra from 200 nm to 400 nm and the peak values of the chromatographic signals.

| LogP | SMILES |
| --- | --- |
| 3.99^[a] | O=C(CBr)c1cnc(Oc2ccc(C(F)F)cc2)cc1C(F)(F)F [VI.27] |
| 4.09^[a] | O=C(CCl)c1ccc(Oc2ccc(OC(F)(F)F)cc2)nc1Cl [VI.08] |
| 4.11^[a] | O=C(CCl)c1ccc(Oc2ccc(Br)cc2)nc1C(F)(F)F [VI.19] |
| 3.76^[a] | O=C(CCl)c1cnc(Oc2ccc(C(F)F)cc2)cc1C(F)(F)F [VI.26] |
| 2.54^[a] | O=C(Cn1cncn1)c1ncc(Oc2ccc(Cl)cc2)nc1Cl [VII.23] |
| 2.30^[a] | O=C(Cn1cncn1)c1ccc(Oc2ccc(F)cc2)nc1Cl [VII.12] |
| 3.50^[a] | O=C(CCl)c1ccc(Oc2ccc(C(F)F)cc2)nc1C(F)(F)F [VI.36] |
| 2.95^[a] | O=C(Cn1cncn1)c1ccc(Oc2ccc(OC(F)(F)F)cc2)nc1C(F)(F)F [VII.39] |
| 3.28^[a] | O=C(CCl)c1cnc(Oc2ccccc2)cc1Cl [VI.05] |
| 3.62^[a] | O=C(CCl)c1ccc(Oc2ccc(Cl)cc2)nc1C(F)F [VI.11] |
| 2.28^[a] | O=C(Cn1cncn1)c1ccc(Oc2ccccc2F)nc1Cl [VII.14] |
| 2.66^[a] | O=C(Cn1cncn1)c1ccc(Oc2cc(F)c(F)c(F)c2)nc1Cl [VII.15] |
| 2.50^[a] | O=C(Cn1cncn1)c1ccc(Oc2ccc(Cl)cc2)nc1F [VII.25] |
| 1.96^[a] | CC(=O)c1ccc(Oc2ccc(C(=O)Cn3cncn3)c(Cl)n2)cc1 [VII.17] |
| 3.35^[a] | O=C(Cn1cncn1)c1cnc(Oc2ccc(S(F)(F)(F)(F)F)cc2)cc1C(F)(F)F [VII.21] |
| 2.51^[a] | O=C(Cn1cncn1)c1cnc(Oc2ccc(Cl)cc2)cc1C(F)F [VII.36] |
| 2.45^[a] | O=C(Cn1cncn1)c1ncc(Oc2ccccc2)cc1Cl [VII.07] |
| 3.33^[a] | O=C(Cn1cncn1)c1ccc(Oc2ccc(OC(F)(F)F)c(Cl)c2)nc1Cl [VII.04] |
| 2.95^[a] | O=C(Cn1cncn1)c1ccc(Oc2ccc(OC(F)(F)F)cc2)nc1Cl [VII.08] |
| 4.21^[a] | O=C(CCl)c1ccc(Oc2ccc(S(F)(F)(F)(F)F)cc2)nc1Cl [VI.30] |
| 2.41^[a] | O=C(Cn1cncn1)c1ccc(Oc2ccc(F)cc2F)nc1Cl [VII.13] |
| 3.17^[a] | O=C(Cn1cncn1)c1cnc(Oc2ccc(C(F)(F)F)cc2)cc1C(F)(F)F [VII.28] |
| 3.06^[a] | O=C(Cn1cncn1)c1ccc(Oc2ccc(Cl)c(Cl)c2)nc1Cl [VII.03] |

Second part, the compound before the results:

| SMILES | LogP |
| --- | --- |
| OC(Cn1cncn1)c1cnc(Oc2ccc(S(F)(F)(F)(F)F)cc2)cc1C(F)(F)F (single isomer, unassigned) [I.86] | 3.11^[a] |
| OC(Cn1cncn1)c1ccc(Oc2ccc(F)cc2F)nc1Cl (racemic) [I.18] | 2.18^[a] |
| CC(=O)c1cnc(Oc2ccc(C(F)(F)F)cc2)cc1C(F)(F)F [V.25] | 4.04^[a] |
| CC(O)(Cn1cncn1)c1ccc(Oc2ccc(Cl)cc2)nc1OC(F)(F)F (racemic) [I.33] | 3.29^[a] |
| OC(Cn1cncn1)(c1ccc(Oc2ccc(Br)cc2)nc1C(F)(F)F)C(F)(F)F (centres unmarked) [I.85] | 3.48^[a] |
| OC(Cn1cncn1)c1ccc(Oc2ccccc2)nc1Cl (racemic) [I.13] | 1.98^[a] |
| CC(O)(Cn1cncn1)c1ccc(Oc2ccc(F)cc2)nc1Oc1ccc(F)cc1 (centres unmarked) [I.77] | 3.13^[a] |
| CC(O)(Cn1cncn1)c1cnc(Oc2ccc(S(F)(F)(F)(F)F)cc2)cc1C(F)(F)F (centres unmarked) [I.37] | 3.33^[a] |
| OC(Cn1cncn1)(c1ccc(Oc2ccc(C(F)(F)F)cc2)nc1C(F)(F)F)C1CC1 (centres unmarked) [I.87] | 3.57^[a] |
| CC(O)(Cn1cncn1)c1cnc(Oc2ccc(Cl)cc2)cc1C(F)F (centres unmarked) [I.64] | 2.68^[a] |
| OC(Cn1cncn1)(c1ccc(Oc2ccc(Br)cc2)nc1C(F)(F)F)C1CC1 (single isomer, unassigned) [Example 1.84] | 3.41^[a] |
| CC(=O)c1ccc(Oc2ccc(S(F)(F)(F)(F)F)cc2)nc1Cl [V.30] | 3.99^[a] |
| OC(Cn1cncn1)c1ccc(Oc2cc(F)c(F)c(F)c2)nc1Cl (racemic) [I.20] | 1.65^[a] |
| CC(C)CC(=O)c1ccc(Oc2ccc(Cl)cc2)nc1C(F)(F)F [V.47] | 4.98^[a] |
| O=C(CCl)c1ccc(Oc2ccccc2)nc1Cl [VI.03] | 3.23^[a] |
| CC(O)(Cn1cncn1)c1ccc(Oc2ccc(Cl)cc2)nc1C(F)(F)F (centres unmarked) [I.67] | 2.68^[a] |
| COc1ccc(Oc2ccc(C(C)=O)c(Cl)n2)c(Cl)c1 [V.29] | 3.44^[a] |
| CC1(c2ccc(Oc3ccc(Cl)cc3)nc2C(F)(F)F)CO1 (centres unmarked) [IX.06] | 4.44^[a] |
| CCCCC(=O)c1ccc(Oc2ccc(Cl)cc2)nc1C(F)(F)F [V.48] | 5.03^[a] |
| CC(O)(Cn1cncn1)c1ccc(Oc2ccc(Cl)c(Cl)c2)nc1Cl (racemic) [I.32] | 3.09^[a] |
| CCCC(=O)c1ccc(Oc2ccc(Cl)cc2)nc1C(F)(F)F [V.46] | 4.59^[a] |

| SMILES | LogP |
| --- | --- |
| CC(=O)c1cnc(Oc2ccc(Cl)cc2F)cc1C(F)(F)F [V.07] | 4.09^[a] |
| CC(O)(Cn1cncn1)c1ccc(Oc2ccc(Br)cc2)nc1C(F)(F)F (single isomer, unassigned) [I.102] | 2.94^[a] |
| OC(Cn1cncn1)c1cnc(Oc2ccc(OC(F)(F)F)cc2)cc1C(F)(F)F (centres unmarked) [I.43] | 3.00^[a] |
| OC(Cn1cncn1)c1ccc(Oc2ccc(Cl)cc2Cl)nc1Cl (racemic) [I.23] | 2.75^[a] |
| CC(=O)c1ccc(Oc2ccc(Cl)cc2)nc1F [V.24] | 3.51^[a] |
| FC(F)(F)c1nc(Oc2ccc(Br)cc2)ccc1C1(C2CC2)CO1 (centres unmarked) [IX.08] | 5.11^[a] |
| CC(=O)c1cnc(Oc2ccc(Br)cc2)cc1C(F)F [V.36] | 3.74^[a] |
| CC(=O)c1ccc(Oc2ccc(C(F)F)cc2)nc1Cl [V.14] | 3.15^[a] |
| OC(Cn1cncn1)c1cnc(Oc2ccccc2)cc1Cl (racemic) [I.21] | 1.92^[a] |
| CC(O)(Cn1cncn1)c1cnc(Oc2ccc(C(F)F)cc2)cc1C(F)(F)F (centres unmarked) [I.56] | 2.73^[a] |
| CC(O)(Cn1cncn1)c1ccc(Oc2ccc(Cl)cc2)nc1Cl (single isomer, unassigned) [I.52] | 2.62^[a] |
| FC(F)(F)c1nc(Oc2ccc(S(F)(F)(F)(F)F)cc2)ccc1C1(C2CC2)CO1 (centres unmarked) [IX.09] | 5.22^[a] |
| CC(O)(Cn1cncn1)c1ccc(Oc2ccc(C(F)(F)F)cc2)nc1C(F)(F)F (centres unmarked) [I.65] | 3.04^[a] |
| CCC(O)(Cn1cncn1)c1cnc(Oc2ccc(C(F)(F)F)cc2)cc1C(F)(F)F (centres unmarked) [I.76] | 3.52^[a] |
| OC(Cn1cncn1)c1ccc(Oc2ccc(OC(F)(F)F)cc2)nc1Cl (racemic) [I.12] | 2.73^[a] |
| OC(Cn1cncn1)c1ccc(Oc2ccc(OC(F)(F)F)cc2)nc1C(F)(F)F (centres unmarked) [I.79] | 2.89^[a] |
| CC(O)(Cn1cncn1)c1ccc(Oc2ccc(F)cc2)nc1Cl (racemic) [I.27] | 2.28^[a] |
| CC(O)(Cn1cncn1)c1cnc(Oc2ccc(Br)cc2)cc1C(F)F (centres unmarked) [I.82] | 2.78^[a] |
| OC(Cn1cncn1)c1cnc(Oc2ccc(Cl)cc2)cc1C(F)F (centres unmarked) [I.94] | 2.13^[a] |
| CC(O)(Cn1cncn1)c1cnc(Oc2ccc(Br)cc2)cc1C(F)(F)F (centres unmarked) [I.49] | 2.96^[a] |

Same assay, conditions: reversed phase HPLC column, method [a]: LC-UV, acidic range, 0.1% formic acid in water and acetonitrile as eluent

| chromatographic logP | SMILES |
| --- | --- |
| 3.8 | CC(=O)c1ccc(Oc2ccc(Cl)cc2)nc1C(F)(F)F [V.01, 1-[6-(4-chlorophenoxy)-2-(trifluoromethyl)-3-pyridyl]ethanone] |
